Data taken from patent US8420655B2, “Benzimidazole inhibitors of leukotriene production” (Boehringer Ingelheim International GmbH, priority 2009, dated 2013).

The compounds below were run against T1, recombinant human FLAP protein (Homo sapiens, UniProt P20292) (assay: FLAP binding assay, displacement of iodinated (125I) FLAP inhibitor, Scintillation Proximity Assay format). Settings: [125I]L-691,831 probe, membrane protein from sf9 cells; read-out: hFLAP binding IC50.
T1 construct: made in house; host or cells: Sf9 insect cells (membrane fraction, 100,000 x g pellet)
T1 sequence (P20292 1-161): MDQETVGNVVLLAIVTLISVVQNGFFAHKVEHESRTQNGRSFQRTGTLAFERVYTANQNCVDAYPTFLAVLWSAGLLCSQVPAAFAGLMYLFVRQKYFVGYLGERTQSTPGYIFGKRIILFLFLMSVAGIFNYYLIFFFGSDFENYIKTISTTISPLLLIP
Method: Compounds are assessed for the ability to bind to FLAP in a binding assay that measures compound-specific displacement of an iodinated (^125I) FLAP inhibitor via a Scintillation Proximity Assay format (adapted from S. Charleson et al., Mol. Pharmacol., 1992, 41, 873-879).
Cell pellets produced from sf9 insect cells expressing recombinant human FLAP protein are resuspended in buffer A [15 mM Tris-HCl (pH 7.5), 2 mM MgCl2, 0.3 mM EDTA, 1 mM PMSF]. The cells are lysed with a Dounce homogenizer and the material is centrifuged at 10,000×g for 10 minutes. The supernatant is then collected and centrifuged at 100,000×g for 60 minutes. To prepare membrane protein for an assay, an aliquot of the 100,000×g pellet is resuspended in 1 ml of buffer A, Dounce homogenized, and finally subjected to polytron mixing (30 seconds). Membrane protein (25 μl, 5 μg) is mixed with WGA SPA beads (Amersham) and stirred for 1 h. To an assay plate (Perkin Elmer FlexiPlate) is added 25 μl of test compound prepared in Binding buffer [100 mM Tris (pH 7.5), 140 mM NaCl, 5% glycerol, 2 mM EDTA, 0.5 mM TCEP, 0.05% Tween 20], 25 μl of [^125I]L-691,831 (an iodinated analog of MK-591, Charleson et al. Mol. Pharmacol., 41, 873-879, 1992) and finally 50 μl of the bead/protein mixture. (final concentrations: beads, 200 μg/well; protein, 5 μg/well; [^125I] probe, 0 08 nM/well (17 nCi/well). The plates are shaken for 2 h before reading on a Microbeta plate reader. Non-specific binding is determined by the addition of 10 μM cold L-691,831 compound.

| SMILES | IC50 |
| --- | --- |
| CC(C)(C)n1c(-c2cc(C#N)ccc2-n2cnc(-c3ccccc3Cl)n2)nc2cc(-c3cnc(N)nc3)ccc21 [3-[5-(2-Amino-pyrimidin-5-yl)-1-tert-butyl-1H-benzoimidazol-2-yl]-4-[3-(2-chloro-phenyl)-[1,2,4]triazol-1-yl]-benzonitrile] | 4.4 nM |
| Cc1ncn(-c2ccc(C#N)cc2-c2nc3cc(-c4cnc(N)nc4)ccc3n2C(C)(C)C)n1 [3-[5-(2-Amino-pyrimidin-5-yl)-1-tert-butyl-1H-benzimidazol-2-yl]-4-(3-methyl-1,2,4-triazol-1-yl)-benzonitrile] | 3 nM |
| CC(C)(COc1ccc(-n2cncn2)c(-c2nc3cc(-c4cnc(N)nc4)ccc3n2C(C)(C)C)c1)C(=O)O [3-{3-[5-(2-Amino-pyrimidin-5-yl)-1-tert-butyl-1H-benzimidazol-2-yl]-4-1,2,4-triazol-1-yl-phenoxy}-2,2-dimethyl-propionic acid] | 5.9 nM |
| CC(C)(C)n1c(-c2cc(Cl)ccc2-n2cncn2)nc2cc(-c3cnc(N)nc3)ccc21 [5-[1-tert-Butyl-2-(5-chloro-2-1,2,4-triazol-1-yl-phenyl)-1H-benzimidazol-5-yl]-pyrimidin-2-ylamine] | 3 nM |
| CC(C)(C)n1c(-c2ccccc2-c2ncn(CCO)n2)nc2cc(-c3cnc(N)nc3)ccc21 [2-(3-{2-[5-(2-Amino-pyrimidin-5-yl)-1-tert-butyl-1H-benzoimidazol-2-yl]-phenyl}-[1,2,4]triazol-1-yl)-ethanol] | 5.8 nM |
| CC(C)(Oc1ccc(-c2nc3cc(-c4cnc(N)nc4)ccc3n2C(C)(C)C)c(-n2cncn2)c1)C(=O)O [2-{4-[5-(2-Amino-pyrimidin-5-yl)-1-tert-butyl-1H-benzoimidazol-2-yl]-3-[1,2,4]triazol-1-yl-phenoxy}-2-methyl-propionic acid] | 5.5 nM |
| CC(C)(C)n1c(-c2cc(F)ccc2-n2cncn2)nc2cc(-c3cnc(N)nc3)ccc21 | 1.4 nM |
| CC(C)(C)n1c(-c2cc(C#N)ccc2-n2cnc(Br)n2)nc2cc(-c3cnc(N)nc3)ccc21 [3-[5-(2-Amino-pyrimidin-5-yl)-1-tert-butyl-1H-benzoimidazol-2-yl]-4-(3-bromo-[1,2,4]triazol-1-yl)-benzonitrile] | 0.83 nM |
| C=Cc1ccc(-n2cncn2)c(-c2nc3cc(-c4cnc(N)nc4)ccc3n2C(C)(C)C)c1 [5-[1-tert-Butyl-2-(2-1,2,4-triazol-1-yl-5-vinyl-phenyl)-1H-benzimidazol-5-yl]-pyrimidin-2-ylamine] | 1.3 nM |
| Cc1ccn(-c2ccc(C#N)cc2-c2nc3cc(-c4cnc(N)nc4)ccc3n2C(C)(C)C)n1 [3-[5-(2-Amino-pyrimidin-5-yl)-1-tert-butyl-1H-benzoimidazol-2-yl]-4-(3-methyl-pyrazol-1-yl)-benzonitrile] | 1.8 nM |
| CNC(=O)c1ccc(-n2cncn2)c(-c2nc3cc(-c4cnc(N)nc4)ccc3n2C(C)(C)C)c1 [3-[5-(2-Amino-pyrimidin-5-yl)-1-tert-butyl-1H-benzoimidazol-2-yl]-N-methyl-4-[1,2,4]triazol-1-yl-benzamide] | 20 nM |
| CC(C)(C)n1c(-c2cc(C(F)(F)F)ccc2-n2cncn2)nc2cc(-c3cnc(N)nc3)ccc21 | 2.4 nM |
| CC(C)NC(=O)Oc1ccc(-n2cncn2)c(-c2nc3cc(-c4cnc(N)nc4)ccc3n2C(C)(C)C)c1 [Isopropyl-carbamic acid 3-[5-(2-amino-pyrimidin-5-yl)-1-tert-butyl-1H-benzimidazol-2-yl]-4-1,2,4-triazol-1-yl-phenyl ester] | 1.5 nM |
| CC(C)(C)n1c(-c2cc(C#N)ccc2-n2cncn2)nc2cc(-c3cnc(N)nc3)ccc21 [3-[5-(2-Amino-pyrimidin-5-yl)-1-tert-butyl-1H-benzimidazol-2-yl]-4-1,2,4-triazol-1-yl-benzonitrile] | 3.1 nM |
| COCCn1cnc(-c2ccccc2-c2nc3cc(-c4cnc(N)nc4)ccc3n2C(C)(C)C)n1 [5-(1-tert-Butyl-2-{2-[1-(2-methoxy-ethyl)-1H-[1,2,4]triazol-3-yl]-phenyl}-1H-benzoimidazol-5-yl)-pyrimidin-2-ylamine] | 3.3 nM |
| CCOC(=O)C(C)(C)COc1ccc(-c2nc3cc(-c4cnc(N)nc4)ccc3n2C(C)(C)C)c(-n2cncn2)c1 [3-{4-[5-(2-Amino-pyrimidin-5-yl)-1-tert-butyl-1H-benzoimidazol-2-yl]-3-[1,2,4]triazol-1-yl-phenoxy}-2,2-dimethyl-propionic acid ethyl ester] | 2.7 nM |
| CC(C)(C)n1c(-c2cccc(F)c2-n2cncn2)nc2cc(-c3cnc(N)nc3)ccc21 [5-[1-tert-Butyl-2-(3-fluoro-2-1,2,4-triazol-1-yl-phenyl)-1H-benzimidazol-5-yl]-pyrimidin-2-ylamine] | 1.7 nM |
| Cc1noc(-c2ccccc2-c2nc3cc(-c4cnc5[nH]ccc5c4)ccc3n2C(C)(C)C)n1 [1-tert-Butyl-2-[2-(3-methyl-1,2,4-oxadiazol-5-yl)-phenyl]-5-(1H-pyrrolo[2,3-b]pyridin-5-yl)-1H-benzimidazole] | 1.2 nM |

Continued, values first:

| IC50 | SMILES |
| --- | --- |
| 2.2 nM | CC(C)Oc1ccc(-n2cncn2)c(-c2nc3cc(-c4cnc(N)nc4)ccc3n2C(C)(C)C)c1 [5-[1-tert-Butyl-2-(5-isopropoxy-2-1,2,4-triazol-1-yl-phenyl)-1H-benzimidazol-5-yl]-pyrimidin-2-ylamine] |
| 36.8 nM | CC(C)(C)n1c(-c2cc(S(C)(=O)=O)ccc2-n2cncn2)nc2cc(-c3cnc(N)nc3)ccc21 [5-[1-tert-Butyl-2-(5-methanesulfonyl-2-[1,2,4]triazol-1-yl-phenyl)-1H-benzoimidazol-5-yl]-pyrimidin-2-ylamine] |
| 2.4 nM | Cn1cc(-c2ccc(-n3cncn3)c(-c3nc4cc(-c5cnc(N)nc5)ccc4n3C(C)(C)C)c2)cn1 [5-{1-tert-Butyl-2-[5-(1-methyl-1H-pyrazol-4-yl)-2-[1,2,4]triazol-1-yl-phenyl]-1H-benzoimidazol-5-yl}-pyrimidin-2-ylamine] |
| 1.4 nM | Cc1ncn(-c2ccc(Cl)cc2-c2nc3cc(-c4cnc(N)nc4)ccc3n2C(C)(C)C)n1 [5-{1-tert-Butyl-2-[5-chloro-2-(3-methyl-1,2,4-triazol-1-yl)-phenyl]-1H-benzimidazol-5-yl}-pyrimidin-2-ylamine] |
| 4.2 nM | CC(C)(C)n1c(-c2ccccc2-c2ncn(CC#N)n2)nc2cc(-c3cnc(N)nc3)ccc21 [(3-{2-[5-(2-Amino-pyrimidin-5-yl)-1-tert-butyl-1H-benzoimidazol-2-yl]-phenyl}-[1,2,4]triazol-1-yl)-acetonitrile] |
| 6.1 nM | Cn1ncnc1-c1ccccc1-c1nc2cc(-c3cnc(N)nc3)ccc2n1C(C)(C)C [5-{1-tert-Butyl-2-[2-(2-methyl-2H-1,2,4-triazol-3-yl)-phenyl]-1H-benzimidazol-5-yl}-pyrimidin-2-ylamine] |
| 2.4 nM | CCc1ccc(-n2cncn2)c(-c2nc3cc(-c4cnc(N)nc4)ccc3n2C(C)(C)C)c1 [5-[1-tert-Butyl-2-(5-ethyl-2-1,2,4-triazol-1-yl-phenyl)-1H-benzimidazol-5-yl]-pyrimidin-2-ylamine] |
| 6 nM | CCCCC/C(=C\C(=O)O)c1ccc(-n2cncn2)c(-c2nc3cc(-c4cnc(N)nc4)ccc3n2C(C)(C)C)c1 [(E)-3-{3-[5-(2-Amino-pyrimidin-5-yl)-1-tert-butyl-1H-benzoimidazol-2-yl]-4-[1,2,4]triazol-1-yl-phenyl}-oct-2-enoic acid] |
